Data published in patent US9562035B2, “Benzamide derivative useful as FASN inhibitors for the treatment of cancer” (Janssen Pharmaceutica NV, priority 2013, dated 2017).

Experiments:
[1] = molecular target: T1, hFASN enzyme (full length) (Homo sapiens, UniProt P49327); test: Fatty Acid Synthase (FASN) Inhibition Scintillation Proximity Assay; type: biochemical; settings: for IC50: mean where tested more than once, ~ = standard error of pIC50 larger than 0.5; for inhibition at 10 µM: read-out: FASN % Effect @1E−05M
T1 construct: 10 μL hFASN enzyme (full length, 300 ng, purified in house); made in house
Protocol: In this assay, inhibition of FASN activity is measured using ^3H-acetyl-CoA and malonyl-CoA as substrates. ^3H-Acetyl CoA is converted to ^3H-palmitate through a series of reactions by the FASN protein, which contains 7 functional domains and carries out 7 enzymatic reactions to ultimately produce ^3H-palmitate. The assay principle is based upon the fact that ^3H-acetyl-CoA is hydrophilic and the end product, ^3H-palmitate is hydrophobic.
10 μL assay buffer (100 mM KH2PO4 pH 7.5, 1 mM DTT) (20 μL in blanks) was added to a 384-well white Opti Plate plate (Perkin Elmer). 0.9 μL test compound (at concentrations of 30 μM, 10 μM, 3 μM, 1 μM, 0.30 μM, 0.10 μM, 0.03 μM and 0.01 μM)/DMSO and 10 μL hFASN enzyme (full length, 300 ng, purified in house) or 10 μL assay buffer was added to the wells. Then 10 μL 450 μM NADPH (Sigma N7505), 18.75 μM [^3H]-acetyl-CoA (Perkin Elmer NET-290L), 150 μM malonyl-CoA (Sigma M4263) were added, mixed and incubated at room temperature for 60 minutes. The reaction was stopped by adding 20 μL Streptavidin coupled imaging beads (25 mg/ml). After incubation for 30 minutes at room temperature in the dark, the 384 well plate was centrifuged at 1500 rpm for 3 minutes and was measured after at least 24 hrs by the LEADseeker™, measuring emission using a 610±20 nm pass filter. (Bays, N. W., et al., “A simplified scintillation proximity assay for fatty acid synthase activity: development and comparison with other FAS activity assays”, J. Biomol. Screen, 2009, pp 636-642, Vol. 14(6).)
(§1) Raw data generated by the instrument were normalized to % Controlmin values, which were calculated as: % Controlmin=100*(x−mLC)/(mHC−mLC)
(§2) where mLC and mHC were the means of the low control wells and high control wells on the plate, after manual exclusion of outliers. A plot of Controlmin versus test compound concentration was fitted to a 4-parameter logistic curve using a non-linear least squares regression method. From the plot, an IC50 (concentration at which 50% inhibition is achieved) was calculated. pIC50 values were calculated as −log(IC50), when IC50 is expressed in molar units.

[2] = molecular target: T2, FASN Keto-reductase Domain (Homo sapiens, UniProt P49327); test: Fatty Acid Synthase Keto-Reductase Domain (FASN KR) Inhibition; type: biochemical; settings: mean where tested more than once; read-out: FASN K-R Domain pIC50 (converted)
T2 construct: 10 μL hFASN enzyme (full length, 300 ng, purified in house) and 360 μM NADPH; made in house
Protocol: 10 μL assay buffer (100 mM KH2PO4 pH 7.5) was added to a 384-well clear plate (costar 3702). 0.3 μL compound (at concentrations of 30 μM, 10 μM, 3 μM, 1 μM, 0.30 μM, 0.10 μM, 0.03 μM and 0.01 μM)/DMSO, 10 μL hFASN enzyme (full length, 300 ng, purified in house) and 360 μM NADPH (except in blank) were then added. Then, 10 μL 180 mM ethyl acetoacetate (Aldrich 688983) was added, mixed and immediately thereafter, the absorbance at 340 nm (T1) by Multiscan (Labsystems) was measured. After 20 minutes incubation at room temperature the plate was measured again (T2).
The decrease in absorbance was calculated as (Absorbance before incubation T1)−(Absorbance following incubation T2).
as §1, §2

T1 sequence (P49327 whole entry): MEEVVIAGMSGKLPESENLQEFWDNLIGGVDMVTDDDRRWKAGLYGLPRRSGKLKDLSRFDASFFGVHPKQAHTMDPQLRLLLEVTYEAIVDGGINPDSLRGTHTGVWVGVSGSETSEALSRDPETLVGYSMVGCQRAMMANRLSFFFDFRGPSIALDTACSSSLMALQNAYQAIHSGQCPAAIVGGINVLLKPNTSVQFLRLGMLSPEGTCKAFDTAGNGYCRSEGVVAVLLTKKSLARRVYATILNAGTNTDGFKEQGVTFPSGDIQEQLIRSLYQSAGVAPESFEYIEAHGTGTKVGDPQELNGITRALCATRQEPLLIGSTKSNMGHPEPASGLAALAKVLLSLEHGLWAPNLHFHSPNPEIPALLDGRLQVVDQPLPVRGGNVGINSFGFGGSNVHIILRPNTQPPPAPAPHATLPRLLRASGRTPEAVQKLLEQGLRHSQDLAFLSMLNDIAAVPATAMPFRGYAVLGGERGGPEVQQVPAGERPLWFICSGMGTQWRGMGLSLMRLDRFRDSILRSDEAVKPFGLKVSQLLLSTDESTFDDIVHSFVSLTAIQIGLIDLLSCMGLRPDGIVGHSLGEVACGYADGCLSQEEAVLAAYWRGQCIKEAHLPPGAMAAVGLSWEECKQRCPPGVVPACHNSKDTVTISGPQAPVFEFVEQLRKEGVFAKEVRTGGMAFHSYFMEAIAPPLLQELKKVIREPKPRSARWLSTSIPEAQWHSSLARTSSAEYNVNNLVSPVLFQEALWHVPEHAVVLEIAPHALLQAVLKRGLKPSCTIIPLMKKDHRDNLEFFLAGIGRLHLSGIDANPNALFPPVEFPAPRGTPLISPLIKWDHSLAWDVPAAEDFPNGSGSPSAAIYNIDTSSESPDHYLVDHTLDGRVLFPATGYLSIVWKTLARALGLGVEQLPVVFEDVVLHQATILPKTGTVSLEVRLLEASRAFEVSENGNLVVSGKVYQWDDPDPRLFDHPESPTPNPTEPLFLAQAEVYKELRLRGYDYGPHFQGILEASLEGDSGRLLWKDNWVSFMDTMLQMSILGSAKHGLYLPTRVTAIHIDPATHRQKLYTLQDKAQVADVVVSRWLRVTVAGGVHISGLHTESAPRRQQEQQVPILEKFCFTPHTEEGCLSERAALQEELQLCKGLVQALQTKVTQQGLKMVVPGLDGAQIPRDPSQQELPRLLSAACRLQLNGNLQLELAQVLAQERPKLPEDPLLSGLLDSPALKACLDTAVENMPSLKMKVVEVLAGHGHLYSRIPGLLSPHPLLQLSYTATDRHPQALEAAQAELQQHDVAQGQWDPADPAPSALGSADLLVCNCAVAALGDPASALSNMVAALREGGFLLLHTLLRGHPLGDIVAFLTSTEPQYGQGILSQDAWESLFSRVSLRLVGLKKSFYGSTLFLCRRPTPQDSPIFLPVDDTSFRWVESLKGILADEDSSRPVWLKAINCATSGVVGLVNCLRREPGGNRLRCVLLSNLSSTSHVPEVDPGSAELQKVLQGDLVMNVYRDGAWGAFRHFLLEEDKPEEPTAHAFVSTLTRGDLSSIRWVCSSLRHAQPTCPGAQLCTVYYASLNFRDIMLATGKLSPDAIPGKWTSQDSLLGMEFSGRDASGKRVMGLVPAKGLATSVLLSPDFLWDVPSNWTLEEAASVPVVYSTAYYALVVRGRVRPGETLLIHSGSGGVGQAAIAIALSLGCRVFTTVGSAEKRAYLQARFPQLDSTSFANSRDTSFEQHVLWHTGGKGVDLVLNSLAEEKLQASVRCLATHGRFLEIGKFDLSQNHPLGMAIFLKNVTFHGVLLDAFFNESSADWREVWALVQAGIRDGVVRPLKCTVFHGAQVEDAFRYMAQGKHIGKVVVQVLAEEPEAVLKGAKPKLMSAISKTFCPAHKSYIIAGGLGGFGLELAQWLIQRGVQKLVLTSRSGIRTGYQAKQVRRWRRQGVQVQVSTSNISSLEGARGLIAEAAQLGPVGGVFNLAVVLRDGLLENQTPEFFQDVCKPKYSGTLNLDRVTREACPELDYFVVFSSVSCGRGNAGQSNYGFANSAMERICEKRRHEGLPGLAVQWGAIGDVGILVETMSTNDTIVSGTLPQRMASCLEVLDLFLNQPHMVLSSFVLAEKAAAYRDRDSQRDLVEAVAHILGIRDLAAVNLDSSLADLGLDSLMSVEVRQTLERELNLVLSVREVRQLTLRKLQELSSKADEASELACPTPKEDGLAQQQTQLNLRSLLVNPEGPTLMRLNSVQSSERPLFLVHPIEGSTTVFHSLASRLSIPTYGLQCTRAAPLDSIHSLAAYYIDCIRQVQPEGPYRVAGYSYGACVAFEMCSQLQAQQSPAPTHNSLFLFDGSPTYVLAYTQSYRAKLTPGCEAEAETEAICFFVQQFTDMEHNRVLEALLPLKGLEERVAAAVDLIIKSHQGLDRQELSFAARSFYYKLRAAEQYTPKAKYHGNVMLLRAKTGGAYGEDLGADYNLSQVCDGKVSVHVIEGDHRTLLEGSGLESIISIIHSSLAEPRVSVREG
T2 sequence (P49327 whole entry, the tested form may be a part): as the sequence (P49327 whole entry) above

Row | SMILES | IC50 [1] | inhibition at 10 µM [1] | IC50 [2]
1 | Cc1ccc(C(=O)N2CCC(c3ccc4nccn4c3)CC2)cc1NC(=O)c1ccc(Cl)nc1 [Compound 14, 6-chloro-N-(5-(4-(imidazo[1,2-a]pyridin-6-yl)piperidine-1-carbonyl)-2-methylphenyl)nicotinamide] | > 30.2 µM | 30% | 17 µM
2 | Cc1ccc(C(=O)N2CCC(c3ccc4nncn4c3)CC2)cc1NC(=O)c1ccc(Cl)nc1 [Compound 18, N-(5-(4-([1,2,4]triazolo[4,3-a]pyridin-6-yl)piperidine-1-carbonyl)-2-methylphenyl)-6-chloronicotinamide] | > 30.2 µM | 2% | > 30.2 µM
3 | Cc1ccc(C(=O)N2CCC(c3ccc4c(c3)CN(C)C4=O)CC2)cc1NC(=O)c1ccc(NC(C)C)nc1 [Compound 19, 6-(isopropylamino)-N-(2-methyl-5-(4-(2-methyl-1-oxoisoindolin-5-yl)piperidine-1-carbonyl)phenyl)nicotinamide] | 6.61 µM | 50% | 5.5 µM
4 | Cc1ccc(C(=O)N2CCC(c3ccc4c(c3)C(C)N(C)C4=O)CC2)cc1NC(=O)c1ccc(NC(C)C)nc1 (stereo not shown) [Compound 22, N-(5-(4-(2,3-dimethyl-1-oxoisoindolin-5-yl)piperidine-1-carbonyl)-2-methylphenyl)-6-(isopropylamino)nicotinamide] | 4.9 µM | 60% | 7.94 µM
5 | Cc1ccc(C(=O)N2CCC(c3ccc4ncsc4c3)CC2)cc1NC(=O)c1ccc(NC(C)C)nc1 [Compound 46, N-(5-(4-(benzo[d]thiazol-6-yl)piperidine-1-carbonyl)-2-methylphenyl)-6-(isopropylamino)nicotinamide] | 2.29 µM | 74% | –
6 | Cc1ccc(C(=O)N2CCC(c3ccc4ncsc4c3)CC2)cc1NC(=O)c1ccc(Cl)nc1 [Compound 47, N-(5-(4-(benzo[d]thiazol-6-yl)piperidine-1-carbonyl)-2-methylphenyl)-6-chloronicotinamide] | ~7.76 µM | 60% | –
7 | Cc1ccc(C(=O)N2CC(O)(c3ccc(-c4ccnn4C)cc3)C2)cc1NC(=O)c1ccc(Cl)nc1 [Compound 107, 6-chloro-N-(5-(3-hydroxy-3-(4-(1-methyl-1H-pyrazol-5-yl)phenyl)azetidine-1-carbonyl)-2-methylphenyl)nicotinamide] | > 10 µM | 41% | –
8 | Cc1ccc(C(=O)N2CCC(c3ccc(-c4cnn(C)c4)cc3)CC2)cc1NC(=O)c1ccc(N2CCN[C@H](CO)C2)nc1 [Compound 164, (3S)-6-(3-(hydroxymethyl)piperazin-1-yl)-N-(2-methyl-5-(4-(4-(1-methyl-1H-pyrazol-4-yl)phenyl)piperidine-1-carbonyl)phenyl)nicotinamide] | 0.0209 µM | 110% | 0.0417 µM
9 | Cc1ccc(C(=O)N2CC(c3ccc(-c4cnn(C)c4)cc3)C2)cc1NC(=O)C1CCCC1 [Compound 226, N-(2-methyl-5-(3-(4-(1-methyl-1H-pyrazol-4-yl)phenyl)azetidine-1-carbonyl)phenyl)cyclopentanecarboxamide] | > 10 µM | 17% | –
10 | CN(C(=O)C1CC1)c1ccc(C(=O)N2CCC(c3ccc(-c4cnn(C)c4)cc3)CC2)cc1NC(=O)C1CC1 [Compound 277, N-(2-(cyclopropanecarboxamido)-4-(4-(4-(1-methyl-1H-pyrazol-4-yl)phenyl)piperidine-1-carbonyl)phenyl)-N-methylcyclopropanecarboxamide] | 4.47 µM | 62% | –
11 | COCCN(C(=O)C1CC1)c1ccc(C(=O)N2CCC(c3ccc(-c4cnn(C)c4)cc3)CC2)cc1NC(=O)C1CC1 [Compound 291, N-(2-(cyclopropanecarboxamido)-4-(4-(4-(1-methyl-1H-pyrazol-4-yl)phenyl)piperidine-1-carbonyl)phenyl)-N-(2-methoxyethyl)cyclopropanecarboxamide] | > 10 µM | – | –

The remaining lines, values ahead:

Row | IC50 [1] | inhibition at 10 µM [1] | IC50 [2] | SMILES
12 | ~12.9 µM | 51% | 8.13 µM | Cc1ccc(C(=O)N2CCC(c3ccc4nccn4c3)CC2)cc1NC(=O)c1ccc(NC(C)C)nc1 [Compound 17, N-(5-(4-(imidazo[1,2-a]pyridin-6-yl)piperidine-1-carbonyl)-2-methylphenyl)-6-(isopropylamino)nicotinamide]
13 | ~30.2 µM | 30% | – | Cc1ccc(C(=O)N2CCC(c3ccc4nncn4c3)CC2)cc1NC(=O)c1ccc(NC(C)C)nc1 [Compound 20, N-(5-(4-([1,2,4]triazolo[4,3-a]pyridin-6-yl)piperidine-1-carbonyl)-2-methylphenyl)-6-(isopropylamino)nicotinamide]
14 | 27.5 µM | 22% | 13.2 µM | Cc1ccc(C(=O)N2CCC(c3ccc4c(c3)C(C)N(C)C4=O)CC2)cc1NC(=O)c1ccc(Cl)nc1 (stereo not shown) [Compound 21, 6-chloro-N-(5-(4-(2,3-dimethyl-1-oxoisoindolin-5-yl)piperidine-1-carbonyl)-2-methylphenyl)nicotinamide]
15 | 2.45 µM | 63% | – | Cc1ccc(C(=O)N2CCC(c3ccc(-c4cnn(C)c4)cc3)CC2)cc1NC(=O)c1nccn1C [Compound 227, 1-methyl-N-(2-methyl-5-(4-(4-(1-methyl-1H-pyrazol-4-yl)phenyl)piperidine-1-carbonyl)phenyl)-1H-imidazole-2-carboxamide]
16 | 4.07 µM | 61% | – | Cc1ccc(C(=O)N2CCC(c3ccc(-c4cnn(C)c4)cc3)CC2)cc1NC(=O)c1nc(C(C)(C)C)cs1 [Compound 229, 4-(tert-butyl)-N-(2-methyl-5-(4-(4-(1-methyl-1H-pyrazol-4-yl)phenyl)piperidine-1-carbonyl)phenyl)thiazole-2-carboxamide]
17 | ~2 µM | 63% | – | Cc1ccc(-c2ccc(C3CCN(C(=O)c4ccc(C)c(NC(=O)c5ccc(NC(C)C)nc5)c4)CC3)cc2)cc1 [Compound 234, 6-(isopropylamino)-N-(2-methyl-5-(4-(4′-methyl-[1,1′-biphenyl]-4-yl)piperidine-1-carbonyl)phenyl)nicotinamide]
